“Also recorded” adds a separate entry of the source. Where a SMILES comes first, the peptide text is derived from it. Where no end group is shown, it is not given here. [ ]: non-standard residue; d: D form.

What all share (type): cell-based
For test [1], the target named is T1, FPR (Homo sapiens, UniProt P21462).
T1 construct: expressed in transfected cells; host or cells: RBL-2H3 (rat basophilic leukemia) cells, G418-selected
T1 sequence (P21462 1-350): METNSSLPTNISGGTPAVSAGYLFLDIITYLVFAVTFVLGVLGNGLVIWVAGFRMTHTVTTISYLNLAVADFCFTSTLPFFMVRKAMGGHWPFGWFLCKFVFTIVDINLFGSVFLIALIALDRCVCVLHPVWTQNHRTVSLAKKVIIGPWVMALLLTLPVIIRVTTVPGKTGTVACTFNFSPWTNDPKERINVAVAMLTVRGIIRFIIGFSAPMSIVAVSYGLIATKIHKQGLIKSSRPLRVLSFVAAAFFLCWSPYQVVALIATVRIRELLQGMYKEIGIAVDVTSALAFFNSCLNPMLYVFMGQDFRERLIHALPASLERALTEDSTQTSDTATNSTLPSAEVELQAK
Put plainly: Exocytosis: β-hexosaminidase secretion in FPR-expressing RBL-2H3 cells. Conditions: for granule secretion / β-hexosaminidase release (words): FPR cells, 10 μM of each peptide (WKYMVm also various concentrations). The protocol:
(§1) Granule secretion is one of the most important function of mast cells (20). The effect of WKYMVm on granule secretion was checked by measuring β-hexosaminidase secretion as described above (18). Briefly, RBL-2H3 cells (2×10^5/well) expressing FPR or FPRL1 were cultured overnight in a 24-well tissue culture plate. The cells were washed twice with Tyrode's buffer (137 mM NaCl, 12 mM NaHCO3, 5.6 mM glucose, 2.7 mM KCl, 1 mM CaCl2, 0.5 mM MgCl2, 0.4 mM NaH2PO4, 0.1g/100 ml BSA, and 25 mM HEPES, pH 7.4) and stimulated with each peptide. Various concentrations of WKYMVm were treated in FPR- or FPRL1-expressing RBL-2H3 cells (FIG. 5A). 1 μM of WKYMVm was used to stimulate two cell lines in the absence or presence of 10 μM BAPTA/AM (FIG. 5B). The reaction was terminated 20 min after stimulation by placing the plate on ice. Secretion of β-hexosaminidase into the medium was determined by incubating 50 μl of supernatant or cell lysate with 25 μl of 5 mM p-nitrophenyl-N-acetyl-β-D-glucosamide in 0.1 M sodium citrate buffer (pH 3.8) at 37° C. for 2 hr. At the end of the incubation, 50 μl of 0.4 M Na2CO3 were added. Absorbance was monitored at 405 nm. Data are means ±S.E. of a single representative of three experiments performed in triplicate. Values (means ±S.E.) were expressed as a percent of total β-hexosaminidase present in the cells.
From the new finding that cytosolic calcium release was induced by WKYMVm and many of the substituted peptides of WKYMVm but not by some of them (WKGMVm (SEQ ID NO: 1), WKRMVm (SEQ ID NO: 11), D-Met^6 substituted peptides), the effect of the peptides on granule secretion in RBL cells was checked. 10 μM of each peptide was treated in FPR- (FIG. 6A) or FPRL1-expressing RBL-2H3 cells (FIG. 6B). The peptide-induced secretion of β-hexosaminidase was determined as above. Data are means ±S.E. of a single representative of three experiments performed in triplicate.

A further test addresses T2, FPRL1 (Homo sapiens, UniProt P25090).
T2 construct: expressed in transfected cells; host or cells: RBL-2H3 (rat basophilic leukemia) cells, G418-selected
T2 sequence (P25090 1-351): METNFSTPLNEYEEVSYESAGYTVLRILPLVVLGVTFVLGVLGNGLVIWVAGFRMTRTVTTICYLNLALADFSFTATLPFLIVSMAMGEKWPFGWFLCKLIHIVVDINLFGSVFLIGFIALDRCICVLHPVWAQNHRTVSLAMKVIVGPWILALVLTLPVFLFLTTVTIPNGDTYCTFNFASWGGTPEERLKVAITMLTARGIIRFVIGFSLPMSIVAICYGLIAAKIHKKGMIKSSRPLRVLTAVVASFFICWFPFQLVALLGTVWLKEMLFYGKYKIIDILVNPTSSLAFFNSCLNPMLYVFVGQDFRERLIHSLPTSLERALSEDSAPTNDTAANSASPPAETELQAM
Put plainly: Exocytosis: β-hexosaminidase secretion in FPRL1-expressing RBL-2H3 cells. The note with it: for granule secretion / β-hexosaminidase release (words): FPRL1 cells, 10 μM of each peptide (WKYMVm also various concentrations). The protocol: as §1
10 μM of each peptide was treated in FPR- (FIG. 6A) or FPRL1-expressing RBL-2H3 cells (FIG. 6B). The peptide-induced secretion of β-hexosaminidase was determined as above. Data are means ±S.E. of a single representative of three experiments performed in triplicate.

Test [2] deals with T1, FPR. The experiment in a line: Chemotaxis of FPR-expressing RBL-2H3 cells (modified Boyden chamber). The note with it: FPR-expressing RBL-2H3 cells; various concentrations. On the procedure: Chemotaxis assays were performed using multiwell chambers (modified Boyden chamber assay) (Neuroprobe Inc., Gaithersburg, Md.) (18). Briefly, polycarbonate filters (8 μm pore size) were precoated with 50 μg/ml of rat type I collagen (Collaborative Biomedicals) in a HEPES-buffered RPMI 1640 medium. A dry coated filter was placed on a 96-well chamber containing different concentrations of peptides. RBL-2H3 cells expressing FPR or FPRL1 were suspended in RPMI at a concentration of 1×10^6 cells/ml of serum-free RPMI, and 25 μl of the suspension were placed onto the upper well of the 96-well chemotaxis chamber. After incubation for 4 hours at 37° C., non-migrated cells were removed by scraping them out, and cells that migrated across the filter were dehydrated, fixed, and stained with hematoxylin (Sigma, St. Louis, Mo.). The stained cells in five randomly chosen high power fields (HPF) (400×) in that well were then counted. […] The numbers of migrated cells were determined by counting them in a high power field (400×). The Data are presented as means ±SE of three independent experiments each performed in duplicate. The effect of the peptides of the present invention on cellular chemotaxis in FPR- or FPRL1-expressing RBL-2H3 cells was measured. Various concentrations of each peptide were used for the chemotaxis assay with FPR- or FPRL1-expressing RBL-2H3 cells. The numbers of migrated cells were determined by counting them in a high power field (400×). The Data are presented as means ±SE of two independent experiments each performed in duplicates.

Take `CSCC[C@H](NC(=O)CNC(=O)[C@H](CCCCN)NC(=O)[C@@H](N)Cc1c[nH]c2ccccc12)C(=O)N[C@H](C(=O)N[C@H](CCSC)C(N)=O)C(C)C` [WKGMVm-NH2, Trp-Lys-Gly-Met-Val-D-Met-NH2] (H-WKGMV[dM]-NH2; N-terminus assumed): the entries for the “granule secretion / β-hexosaminidase release (words)” value on FPR [1] and at FPRL1 were “could not effect granule secretion” and “stimulated granule secretion”, respectively. In addition, the “cellular chemotaxis” value on FPR [2] was “induced cellular chemotaxis”.
As to `CSCC[C@H](NC(=O)[C@H](Cc1ccc(O)cc1)NC(=O)[C@H](CCCCN)NC(=O)[C@@H](N)Cc1c[nH]c2ccccc12)C(=O)N[C@H](C(=O)N[C@H](CCSC)C(N)=O)C(C)C` [WKYMVm-NH2, Trp-Lys-Tyr-Met-Val-D-Met-NH2, reference compound], the “granule secretion / β-hexosaminidase release (words)” value on FPR [1] was “caused β-hexosaminidase release in a concentration-dependent manner”; at FPRL1 (listed as WKYMVm), “caused β-hexosaminidase release in a concentration-dependent manner; also recorded: stimulated granule secretion”; on FPRL1 (listed as wkymvm), “but not fMLF or wkymvm, stimulated granule secretion”. The “concentration showing maximal β-hexosaminidase release” value on FPR [1] (FPR-expressing RBL-2H3 cells) is recorded as 100 nM; at FPRL1 (FPRL1-expressing RBL-2H3 cells), 10 nM. The “cellular chemotaxis” value at FPR [2] is given as “induced cellular chemotaxis”.
Consider `CSCC[C@H](NC(=O)[C@H](CCCNC(=N)N)NC(=O)[C@H](CCCCN)NC(=O)[C@@H](N)Cc1c[nH]c2ccccc12)C(=O)N[C@H](C(=O)N[C@H](CCSC)C(N)=O)C(C)C` [WKRMVm-NH2, Trp-Lys-Arg-Met-Val-D-Met-NH2] (H-WKRMV[dM]-NH2; N-terminus assumed), for which the “granule secretion / β-hexosaminidase release (words)” value on FPR [1] was “could not effect granule secretion”; on FPRL1, “stimulated granule secretion”. Moreover, at FPR [2], the “cellular chemotaxis” value is “induced cellular chemotaxis”.
With “WKYMVE-NH2 [WKYMVE-NH2, Trp-Lys-Tyr-Met-Val-Glu-NH2]”, the “granule secretion / β-hexosaminidase release (words)” value at FPRL1 is “stimulated granule secretion”. Moreover, the “cellular chemotaxis” value at FPR [2] is reported as “induced cellular chemotaxis”.
Regarding “WKYMVR-NH2 [WKYMVR-NH2, Trp-Lys-Tyr-Met-Val-Arg-NH2]”, the “granule secretion / β-hexosaminidase release (words)” value at FPRL1 is on record as “stimulated granule secretion”. The “cellular chemotaxis” value on FPR [2] is recorded as “induced cellular chemotaxis”.

For the origin of these results see patent publication US7517857B2, “Immune-modulating peptide” (POSCO, priority 2002, dated 2009).
